Reference: patent US20240109873A1, “ANTAGONISTS OF THE MUSCARINIC ACETYLCHOLINE RECEPTOR M4” (Vanderbilt University, priority 2020, published 2024)

Target: T1, human mAChR M1 (Homo sapiens, UniProt P11229)
T1 construct: host or cells: CHO-K1 (ATCC), stably transfected
T1 sequence (P11229 1-460): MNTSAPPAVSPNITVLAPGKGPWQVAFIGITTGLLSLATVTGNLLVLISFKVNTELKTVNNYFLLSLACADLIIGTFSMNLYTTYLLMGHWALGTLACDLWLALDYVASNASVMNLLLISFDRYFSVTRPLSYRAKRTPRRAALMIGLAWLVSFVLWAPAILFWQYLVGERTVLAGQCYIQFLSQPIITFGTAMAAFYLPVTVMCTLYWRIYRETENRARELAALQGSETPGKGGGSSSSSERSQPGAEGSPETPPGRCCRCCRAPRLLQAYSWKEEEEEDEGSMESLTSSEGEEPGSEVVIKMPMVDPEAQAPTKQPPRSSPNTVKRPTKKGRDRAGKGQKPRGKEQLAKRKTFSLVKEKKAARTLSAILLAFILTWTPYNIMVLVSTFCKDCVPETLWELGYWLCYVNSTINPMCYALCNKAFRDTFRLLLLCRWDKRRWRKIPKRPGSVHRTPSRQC
Assay: mAChR M1 cell-based functional assay (calcium flux, antagonism of EC80 acetylcholine response, hM1 CHO-K1 cells)
Conditions: for Human M1 Emin: % ACh maximum at 30 μM; for IC50: decrease of the response elicited by an EC80 concentration of acetylcholine, CHO-K1 cells
Protocol: hM1 cDNA was purchased from Missouri S&T cDNA Resource and used to stably transfect CHO-K1 cells purchased from the American Type Culture Collection using Lipofectamine2000. hM1 cells were grown in Ham's F-12 medium containing 10% heat-inactivated fetal bovine serum (FBS), 20 mM HEPES, and 50 μg/mL G418 sulfate.
For high throughput measurement of agonist-evoked increases in intracellular calcium, CHO-K1 cells stably expressing muscarinic receptors were plated in growth medium lacking G418 and hygromycin at 15,000 cells/20 μL/well in Greiner 384-well black-walled, tissue culture (TC)-treated, clear-bottom plates (VWR). Cells were incubated overnight at 37° C. and 5% CO2. The next day, cells were washed using an ELX 405 (BioTek) with four washes (80 μL) of assay buffer then aspirated to 20 μL. Next, 20 μL of 16 μM Fluo-4/acetoxymethyl ester (Invitrogen, Carlsbad, CA) prepared as a 2.3 mM stock in DMSO and mixed in a 1:1 ratio with 10% (w/v) Pluronic F-127 and diluted in assay buffer was added to the wells and the cell plates were incubated for 50 min at 37° C. and 5% CO2. Dye was removed by washing with the ELX 405 (four 80 μL washes of assay buffer) then aspirated to 20 μL. Compound master plates were formatted in an 11-point CRC format (1:3 dilutions) in 100% DMSO with a starting concentration of 10 mM using the BRAVO liquid handler (Agilent). Test compound CRCs were then transferred to daughter plates (240 nL) using the Echo acoustic plate reformatter (Labcyte, Sunnyvale, CA) and then diluted into assay buffer (40 μL) to a 2× stock using a Thermo Fisher Combi (Thermo Fisher Scientific, Waltham, MA).
Calcium flux was measured using the Functional Drug Screening System (FDSS) 6000 (Hamamatsu Corporation, Tokyo, Japan) as an increase in the fluorescent static ratio. Compounds were applied to cells (20 μL, 2×) using the automated system of the FDSS 6000 at 4 s into the 300 s protocol and the data were collected at 1 Hz. At 144 s into the 300 s protocol, 10 μL of an EC20 concentration of the muscarinic receptor agonist acetylcholine was added (5×), followed by the addition of 12 μL an EC80 concentration of acetylcholine at the 230 s time point (5×). Agonist activity was analyzed as a concentration-dependent increase in calcium mobilization upon compound addition. Emax values for agonist activity are expressed relative to the maximum for acetylcholine. Positive allosteric modulator activity was analyzed as a concentration-dependent increase in the EC20 acetylcholine response. Antagonist activity was analyzed as a concentration-dependent decrease in the EC80 acetylcholine response; for the purposes of the tables herein, an IC50 (inhibitory concentration 50) was calculated as a concentration-dependent decrease of the response elicited by an EC80 concentration of acetylcholine. […]
The above-described assay was also operated in a second mode where an appropriate fixed concentration of the present compounds were added to the cells after establishment of a fluorescence baseline for about 3 seconds, and the response in cells was measured. 140 s later the appropriate concentration of agonist was added and readings taken for an additional 106 s. Data were reduced as described above and the EC50 values for the agonist in the presence of test compound were determined by nonlinear curve fitting. […]

| Human M1 Emin [%] | IC50 [nM] | Structure (SMILES) | human mAChR M1 antagonist activity, comparison in words (compound 61 versus compound 62, from Table 3) |
| --- | --- | --- | --- |
| 20 | > 10000 | [2H]C([2H])([C@H]1CCOC(C)(C)C1)N1C[C@H]2C[C@H](Nc3ccc(-c4cccnc4C(F)(F)F)nn3)C[C@H]2C1 (single isomer, unassigned) [Compound 61] | less human mAChR M1 antagonist activity than compound 62 |
| 6 | 610 | [2H]C([2H])([C@@H]1CCOC(C)(C)C1)N1C[C@H]2C[C@H](Nc3ccc(-c4cccnc4C(F)(F)F)nn3)C[C@H]2C1 [Compound 62, (3aR,5s,6aS)-2-(((R)-2,2-dimethyltetrahydro-2H-pyran-4-yl)methyl-d2)-N-(6-(2-(trifluoromethyl)pyridin-3-yl)pyridazin-3-yl)octahydrocyclopenta[c]pyrrol-5-amine] |  |
